Measured values from ChEMBL document CHEMBL3822368, “Further optimization of the M1 PAM VU0453595: Discovery of novel heterobicyclic core motifs with improved CNS penetration” (Bioorg Med Chem Lett, 2016).
Numbering of substitutions follows the chain as printed.

How the values were obtained:
[1] = target: T1, Muscarinic acetylcholine receptor M1 (Rattus norvegicus, UniProt P08482); test: Positive allosteric modulation at rat muscarinic acetylcholine receptor M1 expressed in CHO cells assessed as potentiation of acetylcholine-induced calcium mobilization; format: functional, cell-based
T1 sequence (P08482 whole entry): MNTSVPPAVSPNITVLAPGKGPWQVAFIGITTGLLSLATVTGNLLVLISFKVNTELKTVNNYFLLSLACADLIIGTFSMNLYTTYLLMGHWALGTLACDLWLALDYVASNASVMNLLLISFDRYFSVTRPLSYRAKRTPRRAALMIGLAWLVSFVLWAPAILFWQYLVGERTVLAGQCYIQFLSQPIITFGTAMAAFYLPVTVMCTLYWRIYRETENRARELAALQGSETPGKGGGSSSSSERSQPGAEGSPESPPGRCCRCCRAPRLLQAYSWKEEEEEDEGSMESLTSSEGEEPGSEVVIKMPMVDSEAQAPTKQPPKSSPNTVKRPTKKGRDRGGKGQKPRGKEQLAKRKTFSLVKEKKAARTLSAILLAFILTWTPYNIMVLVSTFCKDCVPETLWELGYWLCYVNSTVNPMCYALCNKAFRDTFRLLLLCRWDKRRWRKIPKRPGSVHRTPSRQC

[2] = Fraction unbound in human plasma; format: ADME, cell-free
[3] = Fraction unbound in rat plasma; format: ADME, cell-free
[4] = Fraction unbound in rat brain homogenate; format: ADME, tissue-based
[5] = Unbound brain to plasma partition coefficient in Sprague-Dawley rat at 0.20 to 0.25 mg/kg, iv administered through cassette dosing after 0.25 hrs; format: ADME, organism-based; conditions: brain and plasma; for Kp uu at 0.25 h: read-out: K(p,uu,brain)
[6] = target: T2, Muscarinic acetylcholine receptor M1 (Rattus norvegicus) (UniProt P08482); test: Positive allosteric modulation at rat muscarinic acetylcholine receptor M1 expressed in CHO cells assessed as potentiation of acetylcholine-induced calcium mobilization in relative to acetylcholine; format: functional, cell-based
T2 sequence (whole entry): T1 sequence (P08482 whole entry)

[7] = Brain to plasma partition coefficient in Sprague-Dawley rat at 0.20 to 0.25 mg/kg, iv administered through cassette dosing after 0.25 hrs; format: ADME, organism-based; conditions: for Kp at 0.25 h: Sprague-Dawley, brain and plasma
[8] = tested on: CHO; test: Selectivity ratio of EC50 for human muscarinic acetylcholine receptor M1 to EC50 for rat muscarinic acetylcholine receptor M1 expressed in CHO cells; format: cell-based
[9] = target: T3, Muscarinic acetylcholine receptor M1 (Homo sapiens, UniProt P11229); test: Positive allosteric modulation at human muscarinic acetylcholine receptor M1 expressed in CHO cells assessed as potentiation of acetylcholine-induced calcium mobilization; format: functional, cell-based
T3 sequence (P11229 whole entry): T1 sequence (P08482 whole entry) with V5A, S254T, S309P, K320R, G337A, V413I

[10] = target: T3, Muscarinic acetylcholine receptor M1; test: Positive allosteric modulation at human muscarinic acetylcholine receptor M1 assessed as effect on beta-arrestin recruitment
[11] = target: T3, Muscarinic acetylcholine receptor M1; test: Positive allosteric modulation at human muscarinic acetylcholine receptor M1 assessed as effect on receptor internalization
[12] = target: T4, Muscarinic acetylcholine receptor M1 (Homo sapiens) (UniProt P11229); test: Positive allosteric modulation at human muscarinic acetylcholine receptor M1 expressed in CHO cells assessed as potentiation of acetylcholine-induced calcium mobilization relative to acetylcholine; format: functional, cell-based
T4 sequence (whole entry): T1 sequence (P08482 whole entry) with V5A, S254T, S309P, K320R, G337A, V413I

[13] = target: T4, Muscarinic acetylcholine receptor M1 (Homo sapiens); test: Positive allosteric modulation at human muscarinic acetylcholine receptor M1 assessed as effect on beta-arrestin recruitment relative to acetylcholine

SMILES | EC50 [1] | fraction unbound [2] | fraction unbound [3] | fraction unbound [4] | Kpuu at 0.25 h [5] | %max [6] | Kp at 0.25 h [7] | EC50 [9] | Kp uu at 0.25 h [5] | EC50 [10] | EC50 [11] | %max [12] | %max [13] | Kp ([7]; brain, 0.25 h, BLD = below limit of detection) | Ratio EC50 [8]
Cn1cc2cc(-c3cc(F)c(CN4CCn5nccc5C4=O)c(F)c3)ccc2n1 | 1.7 µM | 0.05 | 0.06 | 0.098 | 0.7 | 50% | 0.4 | – | – | – | – | – | – | – | –
Cn1cc2c(-c3cc(F)c(Cn4c(=O)cnc5ccccc54)c(F)c3)cccc2n1 | 4.9 µM | 0.01 | 0.01 | – | – | 67% | 2.16 | > 10 µM | 0.77 | – | – | – | – | – | 2
Cn1cc2c(-c3cc(F)c(CN4CCc5ncccc5C4=O)c(F)c3)cccc2n1 | 4.3 µM | 0.01 | 0.01 | – | – | 52% | 0.52 | > 10 µM | 0.49 | – | – | – | – | – | 2
Cn1cc2c(-c3cc(F)c(CN4CCn5nccc5C4=O)c(F)c3)cccc2n1 | > 10 µM | – | – | – | – | – | – | – | – | – | – | – | – | – | –
Cn1cc2cc(-c3cc(F)c(Cn4c(=O)cnc5ncccc54)c(F)c3)ccc2n1 | 2.8 µM | 0.04 | 0.04 | – | 1.1 | – | 1.64 | – | – | – | – | – | – | – | –
Cn1cc2c(-c3cc(F)c(CN4C=CC5=NCCN5C4=O)c(F)c3)cccc2n1 | 1.7 µM | 0.04 | 0.08 | – | – | 50% | 0.35 | > 10 µM | 0.3 | – | – | – | – | – | 2
Cn1cc2c(-c3cc(F)c(Cn4cnc5ccccc5c4=O)c(F)c3)cccc2n1 | 4.7 µM | 0.01 | 0.01 | – | – | 45% | 0.79 | > 10 µM | 0.32 | – | – | – | – | – | 2
Cn1cc(-c2ccc(CN3Cc4ncccc4C3=O)c(F)c2)cn1 | 3.2 µM | – | – | – | – | 75% | 0.3 | 1.9 µM | – | 2.6 µM | > 10 µM | 79% | 57% | – | 3

Second part, led by results:

EC50 [1] | fraction unbound [2] | fraction unbound [3] | fraction unbound [4] | Kpuu at 0.25 h [5] | %max [6] | Kp at 0.25 h [7] | EC50 [9] | Kp uu at 0.25 h [5] | EC50 [10] | EC50 [11] | %max [12] | %max [13] | Kp ([7]; brain, 0.25 h, BLD = below limit of detection) | SMILES | Ratio EC50 [8]
6.1 µM | 0.03 | 0.03 | – | 2.7 | – | 3.1 | – | – | – | – | – | – | – | O=c1c2ccncc2ncn1Cc1c(F)cc(-c2ccc3cnccc3c2)cc1F | –
4.7 µM | 0.01 | 0.01 | – | – | 73% | 0.77 | 5.3 µM | 0.6 | 0.98 µM | > 10 µM | 65% | 33% | – | Cn1cc2c(-c3cc(F)c(Cn4cnc5cnccc5c4=O)c(F)c3)cccc2n1 | 2
5.3 µM | 0.06 | 0.04 | – | – | – | – | – | – | – | – | – | – | BLD | Cn1cnc2ccc(-c3cc(F)c(Cn4cnc5cnccc5c4=O)c(F)c3)cc21 | –
